Patent US7842808B2, “Anti-migraine spirocycles” (Bristol-Myers Squibb Company, priority 2002, dated 2010)

Tests used:
[1] = system: human cerebral vessels (CGRP-induced dilation); assay: Ex Vivo Human Cerebral Artery Assay, reversal of CGRP-induced relaxation; settings: reversal of 1 nM hCGRP-induced relaxation, vessels pre-contracted with 10 mM KCl
Outline: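 Autopsy human cerebral artery rings (4-5 mm) in Krebs buffer, 37 °C, pH 7.4, carbogen; primed with 100 mM KCl, pre-contracted with 10 mM KCl and fully dilated with 1 nM hCGRP. Antagonists added cumulatively in half-log steps; tension recorded as % reversal of CGRP relaxation, EC50 by four-parameter logistic fit per vessel.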

[2] = target: T1, human CGRP receptor (SK-N-MC cells) (Homo sapiens, UniProt O60894+Q16602); assay: Schild analysis of CGRP stimulated cAMP production; format: cell-based; settings: for slope: Schild plot slope
T1 construct: SK-N-MC cells that endogenously express the human CGRP receptor; endogenous in cells; host or cells: SK-N-MC cells
Procedure: Functional Antagonism. Antagonism of the compounds of invention was determined by measuring the formation of cyclic AMP (adenosine 3′5′-cyclic monophosphate) in SK-N-MC cells that endogenously express the human CGRP receptor. CGRP receptor complex is coupled with Gs protein and CGRP binding to this complex leads to the cyclic AMP production via Gs—dependent activation of an adenylate cyclase (Juaneda C et al., TiPS, 2000; 21:432-438; incorporated by reference herein). Consequently, CGRP receptor antagonists inhibit CGRP-induced cyclic AMP formation in SK-N-MC cells (Doods H et al., Br J Pharmacol, 2000; 129(3):420-423); incorporated by reference herein). For cyclic AMP measurements SK-N-MC cells were incubated with 0.3 nM CGRP alone or in the presence of various concentrations of the compounds of invention for 30 min at room temperature. Compounds of invention were pre-incubated with SK-N-MC cells for 15 min before the addition of CGRP to allow receptor occupancy (Edvinsson et al., Eur J Pharmacol, 2001, 415:39-44; incorporated by reference herein). Cyclic AMP was extracted using the lysis reagent and its concentration was determined by radioimmunoassay using RPA559 cAMP SPA Direct Screening Assay Kit (Amersham Pharmacia Biotech). IC50 values were calculated using Excel fit.
Schild Analysis. Schild analysis can be used to characterize the nature of antagonism of the compounds of invention. The dose response of CGRP stimulated cAMP production was generated either with CGRP alone, or in the presence of various concentrations of compounds of invention. The antagonist dose is plotted as X against the dose ratio (defined as IC50 of agonist with the presence of the compounds divided by the IC50 of the agonist alone) minus 1 as Y. Linear regression was then performed with both X and Y axis log-transformed. […] Kb is the dissociation constant of the antagonist.

[3] = target: T2, CGRP receptor (SK-N-MC cell membranes) (Homo sapiens, UniProt O60894+Q16602); assay: CGRP Binding Assay ([125I]-CGRP radioligand binding, SK-N-MC homogenate); settings: displacement of [125I]-CGRP, SK-N-MC homogenate; read-out: CGRP binding IC50
T2 construct: endogenous in cells; host or cells: SK-N-MC cells (membrane homogenate)

[4] = target: T1, human CGRP receptor (SK-N-MC cells); assay: Cyclic AMP Assay, functional antagonism of CGRP-induced cyclic AMP formation; format: cell-based; settings: SK-N-MC cells, 0.3 nM CGRP; read-out: cAMP Function IC50
Outline: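 SK-N-MC cells, which endogenously express human CGRP receptor, stimulated with 0.3 nM CGRP with or without compound for 30 min at room temperature. Cellular cAMP extracted by lysis and quantified by SPA radioimmunoassay; IC50 from inhibition of CGRP-induced cAMP.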

T1 sequence (Q16602 23-461): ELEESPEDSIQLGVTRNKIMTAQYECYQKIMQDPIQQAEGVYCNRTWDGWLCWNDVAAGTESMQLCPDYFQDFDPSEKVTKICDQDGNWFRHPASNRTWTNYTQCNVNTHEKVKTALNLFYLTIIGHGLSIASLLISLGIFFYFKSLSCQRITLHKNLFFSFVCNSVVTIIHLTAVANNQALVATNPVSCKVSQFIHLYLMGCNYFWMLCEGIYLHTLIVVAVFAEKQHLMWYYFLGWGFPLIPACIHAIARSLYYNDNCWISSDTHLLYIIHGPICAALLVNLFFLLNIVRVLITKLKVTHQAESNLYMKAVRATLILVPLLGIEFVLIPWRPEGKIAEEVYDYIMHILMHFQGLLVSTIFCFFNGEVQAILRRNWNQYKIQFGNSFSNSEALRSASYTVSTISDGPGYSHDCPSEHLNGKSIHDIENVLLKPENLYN
T1 sequence (O60894 27-148): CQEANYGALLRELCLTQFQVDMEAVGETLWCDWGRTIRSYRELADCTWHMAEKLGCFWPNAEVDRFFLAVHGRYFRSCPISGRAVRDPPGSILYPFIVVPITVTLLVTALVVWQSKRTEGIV
T2 sequence (Q16602 23-461): as the sequence (Q16602 23-461) above
T2 sequence (O60894 27-148): as the sequence (O60894 27-148) above

EC50 [1] [nM]	Kb ([2]; Schild analysis, dissociation constant of the antagonist, read-out: Kb) [nM]	slope [2]	IC50 [3] [nM]	IC50 [4] [nM]	Compound
< 10	0.016	1	< 10	< 10	Cc1cc(CC(CC(=O)N2CCC(N3Cc4ccccc4NC3=O)CC2)C(=O)N2CCC(N3CCCCC3)CC2)cc2cn[nH]c12 (racemic) [Example 69, (±)-1-[1,4′]Bipiperidinyl-1′-yl-2-(7-methyl-1H-indazol-5-ylmethyl)-4-[4-(2-oxo-1,4-dihydro-2H-quinazolin-3-yl)-piperidin-1-yl]-butane-1,4-dione]
< 10		1.3	< 10	< 10	Cc1cc(CC(NC(=O)N2CCC(N3Cc4ccccc4NC3=O)CC2)C(=O)N2CCC(N3CCCCC3)CC2)cc2cn[nH]c12 (racemic) [Example 16, (±)-4-(2-Oxo-1,4-dihydro-2H-quinazolin-3-yl)-piperidine-1-carboxylic acid[2-[1,4′]bipiperidinyl-1′-yl-1-(7-methyl-1H-indazol-5-ylmethyl)-2-oxo-ethyl]-amide]
